From publication PMC4515504 (Evidence-based Complementary and Alternative Medicine : eCAM, 2015)

Tested on: T1, alpha-glucosidase (from Bacillus stearothermophilus)
T1 construct: gene maltase
Assay: pNPG hydrolysis, Lineweaver-Burk plot
Assay type: biochemical, Geobacillus stearothermophilus
Settings: control without extract; pNPG 0.08-5 mg/mL, 37°C, 20 min; unreliable: Km extrapolated above the tested substrate range
From the text: pNPG hydrolysis, Lineweaver-Burk plot on alpha-glucosidase (from Bacillus stearothermophilus)

Question: How did the “Alpha-glucosidase / K m” value turn out when `O=[N+]([O-])c1ccc(O[C@H]2O[C@H](CO)[C@@H](O)[C@H](O)[C@H]2O)cc1` [p-nitrophenyl glucopyranoside] was run?
Answer: 17.39 mg/mL
